# Experimental data taken from patent US10478390B2, “Use of glycosides to increase hair mass” (L'OREAL, priority 2015, dated 2019).
# System: hair follicles from biopsies of human scalps
# Test: Hair follicles cultured in vitro for 8 days: increase in the diameter of the hair shaft (fiber)
# Assay type: cell-based
# Settings: for average % of increase between D0 and D8: PX 1 mM, hair shaft diameter; for average % of increase of the diameter of the shafts: same test as for proxylane, method states each glycoside at 10 μM, d0 to d8
# Description: The hair follicles come from biopsies of human scalps, from cosmetic surgery operations conducted on white Caucasian women aged 45 to 75 years.
# The hair follicles are dissected according to the method described in patent application FR 2 736 721 and U.S. Pat. No. 5,712,169, and only the terminal anagen and pigmented hair follicles are studied.
# Freshly dissected hair follicles are introduced into multi-well plates containing 500 μL of William's medium, Invitrogen reference 22551022, enriched with insulin to […], 10 ng/mL of hydrocortisone, 10 μg/mL of L-Glutamine and 0.5% antibiotics (Gibco, reference 15240-096).
# The C-glycosides are then incubated versus a vehicle alone (control condition), the hair follicles are placed in the incubator (37° C., 5% CO2) and kept alive in these different conditions for 8 days. The culture mediums (of the treated and control conditions) are replaced every two days.
# Each glycoside is studied at 10 μM, (dilution of the solid compound in water), versus the vehicle alone (water) for the control condition.
# Each condition is carried out on 12 different hair follicles, which makes it possible to overcome inter-follicle variabilities, and repeated over 3 different subjects (biopsies of scalp from 3 different volunteers) in order to evaluate the robustness of the results, and to overcome inter-donor variability.
# During the 8 days of treatment, all of the hair follicles are observed and photographed every two days in order to evaluate the maintaining of their survival. They are also measured using a binocular magnifier (Leica) provided with a micrometric eyepiece in order to ensure the proper growth thereof.
# The diameter of the hair shaft is measured using photographs taken of all of the hair follicles at d0 and at d8. Using the Leica Application Suite software (Leica), the hair shaft is cropped, its surface is then calculated and its average diameter is determined. The increase in the diameter of the fiber generated in vitro is determined by: (average diameter at d8 Dd8−average diameter at d0 Dd0)*100/Dd0.
SMILES,"thickness of the newly-formed hair shaft (for each subject, in the presence of proxylane)","average % of increase between D0 and D8 (individual 1, control +9.7)","average % of increase between D0 and D8 (individual 2, control +2.7)","average % of increase between D0 and D8 (individual 3, control +4.3)",average % of increase of the diameter of the shafts
"CC(O)C[C@@H]1OC[C@@H](O)[C@H](O)[C@H]1O (stereo partly drawn) [PX, 1,5-anhydro-6,8-dideoxy-L-gluco-octitol (Proxylane)]",increase in the thickness of the newly-formed hair shaft is observed,+17.5%,+11.2%,+14.5%,
"O[C@H]1[C@H](O)COC(OCCc2ccccc2)[C@@H]1O (stereo partly drawn) [Glycoside 3, 2-phenylethyl D-xylopyranoside]",,,,,16%
"COc1cc(CCC(O)CC2OC[C@@H](O)[C@H](O)[C@H]2O)ccc1O (stereo partly drawn) [Glycoside 2, (3R,4S,5R)-2-[2-hydroxy-4-(4-hydroxy-3methxyphenyl)butyl] tetrahydro-2Hpyran-3,4,5-triol]",,,,,12.7%
"OC1OC[C@@H](O)[C@H](O)[C@H]1O (stereo partly drawn) [Glycoside 4, D-xylose]",,,,,11%
